Residues, ends and D or L forms follow the SMILES beside them. *: point of attachment. Cbz = O=C(OCc1ccccc1)*
Assays:
NDV F48E9 [1] = assay: microbe, parasite or virus in culture; type: cell-based, Newcastle disease virus; conditions: for IC50: avian paramyxovirus 1, 24 h
IFN-β = type: cell-based
β-catenin = type: cell-based
[2] = system: NDV PPMV-1/SX-01/Ch/15(VI); assay: microbe, parasite or virus in culture; type: cell-based, Newcastle disease virus; conditions: avian paramyxovirus 1, 24 h, read-out: IC50 PPMV-1/SX-01/Ch/15(VI)
[3] = system: NDV Blackbird/China/08(IX); assay: microbe, parasite or virus in culture; type: cell-based, Newcastle disease virus; conditions: avian paramyxovirus 1, 24 h, read-out: IC50 Blackbird/China/08(IX)
NDV La sota (II) = assay: microbe, parasite or virus in culture; type: cell-based, Newcastle disease virus; conditions: avian paramyxovirus 1, 24 h, read-out: IC50 La sota (II)
PPRV = assay: microbe, parasite or virus in culture; type: cell-based, peste des petits ruminants virus
NDV F48E9 [4] = type: cell-based, Newcastle disease virus
GSK-3β [5] = type: binding
NDV F48E9 [6] = type: cell-based, Newcastle disease virus; remark: listed apart in the source
Wnt/β-catenin pathway = type: cell-based
[7] = system: PPRV, CDV, VSV, PRRSV, AIV, PRV; assay: organism not typed; type: cell-based; conditions: read-out: IC50 against these viruses (PPRV, CDV, VSV, PRRSV, AIV, PRV)
[8] = system: genes downstream of the Wnt/β-catenin pathway; type: cell-based
HSP90β [9] = biological target: T1, HSP90β (Gallus gallus, UniProt Q04619); assay: Cellular thermal shift assay (CETSA), HSP90β; type: binding; conditions: 200 μM, DF-1 cell lysate
T1 construct: endogenous in cells; host or cells: DF-1 cell lysate
T1 sequence (Q04619 whole entry): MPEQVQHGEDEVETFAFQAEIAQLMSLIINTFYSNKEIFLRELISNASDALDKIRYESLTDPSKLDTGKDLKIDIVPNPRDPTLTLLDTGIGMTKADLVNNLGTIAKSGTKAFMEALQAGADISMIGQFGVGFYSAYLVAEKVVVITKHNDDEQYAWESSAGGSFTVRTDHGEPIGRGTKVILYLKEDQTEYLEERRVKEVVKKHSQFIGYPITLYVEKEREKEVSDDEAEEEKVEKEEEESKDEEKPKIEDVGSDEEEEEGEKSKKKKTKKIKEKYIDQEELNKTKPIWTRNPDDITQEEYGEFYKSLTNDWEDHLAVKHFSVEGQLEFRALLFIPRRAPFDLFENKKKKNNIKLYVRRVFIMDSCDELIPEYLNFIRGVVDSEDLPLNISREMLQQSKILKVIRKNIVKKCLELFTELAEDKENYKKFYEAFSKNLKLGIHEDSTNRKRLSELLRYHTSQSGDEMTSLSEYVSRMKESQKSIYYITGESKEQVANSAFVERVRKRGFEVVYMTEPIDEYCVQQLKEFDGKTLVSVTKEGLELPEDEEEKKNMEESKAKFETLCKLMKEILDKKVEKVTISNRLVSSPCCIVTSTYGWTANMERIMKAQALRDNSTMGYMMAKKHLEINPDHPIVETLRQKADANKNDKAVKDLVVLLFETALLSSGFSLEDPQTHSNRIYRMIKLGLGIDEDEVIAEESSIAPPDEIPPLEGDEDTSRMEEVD

OASL = type: cell-based
in vitro = conditions: chicken
F48E9 L protein = type: cell-based, Newcastle disease virus
NP, P protein = type: cell-based, Newcastle disease virus
GSK-3β [10] = type: binding; remark: listed apart in the source
PRV = assay: microbe, parasite or virus in culture; type: cell-based, pseudorabies virus
MX1 = type: cell-based
NDV F48E9 [11] = type: cell-based, Newcastle disease virus; remark: listed apart in the source
HSP90β [12] = biological target: T1, HSP90β; assay: Drug affinity responsive target stability (DARTS), HSP90β; type: binding; conditions: 200 μM, DF-1 cell lysate, 50 ng of pronase
VSV = assay: microbe, parasite or virus in culture; type: cell-based, vesicular stomatitis virus
AIV = assay: microbe, parasite or virus in culture; type: cell-based, avian influenza virus
chicken IFN-β promoter = type: cell-based
PRRSV = assay: microbe, parasite or virus in culture; type: cell-based, porcine reproductive and respiratory syndrome virus
CDV = assay: microbe, parasite or virus in culture; type: cell-based, canine distemper virus

C=CCNC1=C2C[C@@H](C)C[C@H](OC)[C@H](O)[C@@H](C)/C=C(\C)[C@H](OC(N)=O)[C@@H](OC)/C=C\C=C(/C)C(=O)NC(=CC1=O)C2=O [17-AAG]
reduction of infectious virus particle production (NDV F48E9 [1]): 4.19 Log

[Cl-].[Li+] [LiCl, reference compound]
reduction in infectious virus particle production (NDV F48E9 [1]): 2.69 Log
expression of IFN-β (IFN-β): enhanced

CC(C)C[C@@H](C=O)NC(=O)[C@H](CC(C)C)NC(=O)[C@H](CC(C)C)NC(=O)OCc1ccccc1 [MG-132] (Cbz-Leu-Leu-Leu-aldehyde)
amounts of β-catenin in NDV-infected cells (β-catenin): significantly restored

NC(=O)c1ncn([C@@H]2O[C@H](CO)[C@@H](O)[C@H]2O)n1 [Ribavirin, reference compound]
IC50 [2]: 11600 ± 2130 nM
IC50 [3]: 10400 ± 2850 nM
IC50 (NDV F48E9 [1]): 8620 ± 1440 nM
IC50 (NDV La sota (II)): 7970 ± 1590 nM

CCCCn1c2cc(O)ccc2c2ccnc(C)c21 [compound 11, 9-butyl-harmol]
inhibitory rate (reduction) against PPRV (PPRV): higher than 99%
reduction of PPRV mRNA (PPRV): 100 fold
IC50 (PPRV; peste-des-petits-ruminants virus, Vero, 24 h, read-out: IC50 PPRV): 380 ± 60 nM
IC50 [2]: 710 ± 260 nM
NDV adsorption (NDV F48E9 [4]): not inhibited
proteolysis of GSK-3β by pronase (DARTS) (GSK-3β [5]): less sensitive to proteolysis
entry of NDV (NDV F48E9 [6]): no effect
TOPFlash/FOPFlash luciferase activity (Wnt/β-catenin pathway): significantly activated
IC50 [7]: 380 to 810 nM
MYC upregulation (transcriptome) [8]: 2.1287 fold
PPARgamma upregulation (transcriptome) [8]: 2.7893 fold
WISP1 upregulation (transcriptome) [8]: 5.2201 fold
thermal stability of cellular HSP90β (CETSA) (HSP90β [9]): increased the thermal stability
expression of OASL upon F48E9 infection (OASL): 2.51 fold
CC50 (in vitro): > 50000 nM
IC50 [3]: 630 ± 300 nM
expression of L (F48E9 L protein): significant reduction
expression of NP and expression of P (NP, P protein): not affected
thermal stability of GSK-3β (CETSA) (GSK-3β [10]): strongly changed the thermal stability
inhibitory rate (reduction compared to DMSO-treated cells), primary screening (NDV F48E9 [1]): higher than 99%
reduction in infectious virus particle production, high dose of NDV (NDV F48E9 [1]): 3.08 Log
reduction of infectious virus particle production (NDV F48E9 [1]): 5.26 Log
IC50 (NDV F48E9 [1]): 490 ± 110 nM
expression of IFN-β with NDV infection (IFN-β): 1.95 fold
expression of IFN-β without NDV infection (IFN-β): 3.04 fold
reduction of mRNA of PRV (PRV): 66.83%
IC50 (PRV; Suid alphaherpesvirus 1, BHK-21, 24 h, read-out: IC50 PRV): 810 ± 110 nM
expression of MX1 upon F48E9 infection (MX1): 3.13 fold
viral inhibition in time-of-addition study (NDV F48E9 [11]): significant viral inhibition
pronase-induced digestion of HSP90β (DARTS) (HSP90β [12]): prevented
reduction in mRNA expression level of VSV (VSV): > 80%
IC50 (VSV; Vesicular stomatitis virus, BHK-21, 24 h, read-out: IC50 VSV): 430 ± 160 nM
reduction in mRNA expression level of AIV (AIV): > 80%
IC50 (AIV; unidentified influenza virus, A549, 24 h, read-out: IC50 AIV): 530 ± 180 nM
IFN-β promoter activity with NDV infection (chicken IFN-β promoter): 2.89 fold
IFN-β promoter activity without NDV infection (chicken IFN-β promoter): 4.90 fold
IC50 (NDV La sota (II)): 580 ± 80 nM
reduction in mRNA expression level of PRRSV (PRRSV): > 80%
IC50 (PRRSV; Porcine reproductive and respiratory syndrome virus, MARC145, 24 h, read-out: IC50 PRRSV): 540 ± 150 nM
inhibitory rate (reduction) against CDV (CDV): higher than 99%
reduction of CDV mRNA (CDV): 100 fold
IC50 (CDV; canine distemper virus, Vero, 24 h, read-out: IC50 CDV): 400 ± 120 nM

COc1ccc2c(c1)[nH]c1c(C)nccc12 [harmine, reference compound]
effect on NDV proliferation (harmine) (NDV F48E9 [1]): no effect
anti-PRV activity (harmine) (PRV): excellent

Cc1cc(/C=C2\SC(=O)N(c3ccccc3)C2=O)c(C)n1-c1cccnc1 [iCRT14]
effect on the proliferation of NDV (NDV F48E9 [1]): no effect

COC[C@H]1OC(=O)c2coc3c2[C@@]1(C)C1=C(C3=O)[C@@H]2CCC(=O)[C@@]2(C)C[C@H]1OC(C)=O [wortmannin]
amounts of β-catenin in NDV-infected cells (β-catenin): no effect

Source: publication PMC10062145 (Journal of Virology, 2023)
